Test results: article PMC6269559, “Design, Synthesis and Biological Evaluation of Ketoprofen Conjugated To RGD/NGR for Targeted Cancer Therapy” (Iranian Journal of Pharmaceutical Research : IJPR, 2018)

Key:
Type in all cases: cell-based
A2780 (low αVβ3) = test: MTT cytotoxicity, A2780; conditions: 48 h; for Inhibitory % values, A2780: 100 µM
Description: (§1) In order to evaluate the cytotoxic activity of the synthesis compounds, five cell lines: A2780 (low αVβ3), OVCAR-3 (high αVβ3), SKOV-3 (low CD13), HT-1080 (high CD13) and MCF-7 and fibroblast cell were selected. A2780 and MCF-7 are both cancer cells, but A2780 is […] cell line. Three concentrations of products were prepared and were evaluated after 48 h by using MTT method. Therefore cells cultured in culture media (RPMI1640) at 37 °C under 5% CO2 supplemented with 10% fetal bovine serum (FBS), 100 U/mL penicillin and 100 μg/mL streptomycin. Nearly 10^4 cells were seeded into 96-well plates and were grown for 24 h in incubator. Compounds and doxorubicin added to wells, cells were incubated at 37 °C for 48 h. Cells without any adding of compound were used as negative control, Doxorubicin was used as positive control and DMSO as the solvent of the test compounds. After 48 h, 10 μL of MTT (5 mg/mL in PBS) was added at 37 °C for 4 h. The medium with MTT was removed and 100 μL DMSO was added to each well, cover the plate from light, shake it for 5 min, then optical densities were read at 570 nm with a reference wavelength of 630 nm as background using a spectrophotometer plate reader (Infinite® M200, TECAN).

OVCAR-3 (high αVβ3) = test: MTT cytotoxicity, OVCAR-3; conditions: 48 h; for Inhibitory % values, OVCAR3: 100 µM
Description: as §1

HT-1080 (high CD13) = test: MTT cytotoxicity, HT-1080; conditions: 48 h; for Inhibitory % values, HT-1080: 100 µM
Description: as §1

SKOV-3 (low CD13) = test: MTT cytotoxicity, SKOV-3; conditions: 48 h; for Inhibitory % values, SKOV-3: 100 µM
Description: as §1

MCF-7 = test: MTT cytotoxicity, MCF-7; conditions: 48 h; for Inhibitory % values, MCF-7: at 50 µM
Description: as §1

Fibroblast = test: MTT cytotoxicity, fibroblast; conditions: 100 µM, 48 h
Description: as §1

Row | Molecule | inhibition at 5 µM (A2780 (low αVβ3); Homo sapiens, A2780, at 5 µM (positive control), read-out: Inhibitory % values, A2780) [%] | inhibition at 5 µM (OVCAR-3 (high αVβ3); Homo sapiens, OVCAR-3, at 5 µM (positive control), read-out: Inhibitory % values, OVCAR3) [%] | inhibition at 5 µM (HT-1080 (high CD13); Homo sapiens, HT-1080, at 5 µM (positive control), read-out: Inhibitory % values, HT-1080) [%] | inhibition at 5 µM (SKOV-3 (low CD13); Homo sapiens, SK-OV-3, at 5 µM (positive control), read-out: Inhibitory % values, SKOV-3) [%] | inhibition at 5 µM (MCF-7; Homo sapiens, MCF7, at 5 µM (positive control), read-out: Inhibitory % values, MCF-7) [%] | Inhibitory % values, A2780 (A2780 (low αVβ3)) | Inhibitory % values, OVCAR3 (OVCAR-3 (high αVβ3)) | inhibition at 100 µM (HT-1080 (high CD13); Homo sapiens, HT-1080, 100 µM, read-out: Inhibitory % values, HT-1080) [%] | inhibition at 100 µM (SKOV-3 (low CD13); Homo sapiens, SK-OV-3, 100 µM, read-out: Inhibitory % values, SKOV-3) [%] | Inhibitory % values, Fibroblast (Fibroblast) | Inhibitory % values, HT-1080 (HT-1080 (high CD13)) | Inhibitory % values, SKOV-3 (SKOV-3 (low CD13)) | Inhibitory % values, MCF-7 (MCF-7)
1 | COc1cccc2c1C(=O)c1c(O)c3c(c(O)c1C2=O)C[C@@](O)(C(=O)CO)C[C@@H]3O[C@H]1C[C@H](N)[C@H](O)[C@H](C)O1 [Doxorubicin, reference compound] | 65 ± 1.2 | 45.2 ± 1.25 | 26.7 ± 4.8 | 29.5 ± 2.5 | 38 ± 0.53 |  |  |  |  |  |  |  | 
2 | CC(C(=O)O)c1cccc(C(=O)c2ccccc2)c1 (stereo not shown) [Ketoprofen] |  |  |  |  |  | No inhibition | No inhibition | 9.25 ± 1.3 | 14 ± 4.7 | No inhibition |  |  | 
3 | Arginine-Glycine-Aspartic acid [RGD] |  |  |  |  |  | 10 ± 2.2% | No inhibition |  |  | No inhibition | No inhibition | 9.5 ± 0.5% | No inhibition
4 | Asparagine-Glycine-Arginine [NGR] |  |  |  |  |  | 6 ± 1.5% | No inhibition |  |  | No inhibition | 6.5 ± 0.5% | No inhibition | No inhibition
